Results on 3 compounds are retold here after patent US4292314A, “Cardioactive 12-dehydrodigoxin-oximes” (Boehringer Mannheim GmbH, priority 1979, dated 1981).

The nature of series [1]: Pharmacokinetic investigations on awake cats, intravenous injection of 3H-marked test compounds. In kind it is in vivo, cat. To be noted: for distribution volume / elimination constant / excretion in urine: awake cats, i.v., digoxin 30 μg./kg., Cpd. 1 and Cpd. 7 100 μg./kg.; for excretion in urine: urine collected for 14 days; for dosage needed to achieve the same plasma concentration, relative to digoxin: from total clearance. How it is done:
Pharmacokinetic investigations were carried out on awake cats, the test compounds being injected intravenously in the ^3 H-marked form. Over the course of 48 hours, blood samples were taken via an implanted catheter for the determination of the radioactivity in the plasma. The urine was collected for 14 days. The elimination constant was calculated from the decrease of the plasma concentration and the amount excreted in the urine.

Another series can be described thus: in vivo. To be noted: cat, in vivo. As to the method: (§1) The pharmacological action of the new compounds according to the present invention was determined by the comparison of 12-dehydrodigoxin oxime (Compound 1 from) and 12-dehydrodigoxin-o-methyloxime (Compound 7 from) with digoxin, which is a known pharmaceutical for the treatment of cardiac insufficiency, using the following experimental procedure:
(§2) The positive inotropic and cardiotoxic action was tested on cats with pentobarbital-induced heart insufficiency. Increasing dosages were injected at intervals of 10 minutes, so that the total dosage increased in each case by the factor √2. The criterion for the therapeutically relevant, positively inotropic action was the increase of the maximum pressure increase rate by 1.5 or 3.0 mm. Hg/sec (DE1.5 and DE3.0). The quotient from both values is a measure for the steepness of the dosage activity line.
(§3) The measure for the cardiotoxicity was the dosage at which the first disturbances of the induction of stimulation took place. The point of time of the commencement of arrhythmias as ascertained from the electrocardiogram and the related dosage calculated by interpolation. The quotient from this cardiotoxic dosage and the DE1.5 served as a measure for the therapeutic breadth.

Series [2] relates to cats with pentobarbital-induced heart insufficiency. Briefly: animal or person. To be noted: for ED (1.5 mmHg/sec increase) / ED (3.0 mmHg/sec increase): Felis catus, 10 min; for ED (1.5 mmHg/sec increase): read-out: DE1.5; for ED (3.0 mmHg/sec increase): read-out: DE3.0; for quotient of DE3.0 and DE1.5, steepness of the dosage activity line: cats, fractionated injection. How it is done:
as §1, §2, §3

For series [3] the following is noted: humans; cited from earlier work.

Like-named read-outs stand apart in the source and are kept apart here.

Take `C[C@H]1O[C@@H](O[C@H]2[C@@H](O)C[C@H](O[C@H]3[C@@H](O)C[C@H](O[C@H]4CC[C@@]5(C)[C@H](CC[C@@H]6[C@@H]5CC(=NO)[C@]5(C)[C@@H](C7=CC(=O)OC7)CC[C@]65O)C4)O[C@@H]3C)O[C@@H]2C)C[C@H](O)[C@@H]1O` [Compound 1, 12-Dehydrodigoxin oxime]: in series [1], the distribution volume was found to be 2.74 kg⁻¹, the elimination constant is 0.0258 h⁻¹ and the excretion in urine is recorded as 30 % of dose. Also, the “dosage needed to achieve the same plasma concentration, relative to digoxin” value in series [1] (cats) is “about 45 % of the dosage of digoxin”. Besides, the “elimination constant compared with digoxin” value in series [1] (in words, cats) is listed as “even greater”. In the series “in vivo”, the TD50 is 0.51 mg/kg and the selectivity ratio is 4.85. In addition, in series [2], the ED (1.5 mmHg/sec increase) amounted to 0.105 mg/kg; the ED (3.0 mmHg/sec increase) was found to be 0.236 mg/kg; the “quotient of DE3.0 and DE1.5, steepness of the dosage activity line” value (shortened to “quotient”) turned out to be 1.98.

In the case of `CON=C1C[C@H]2[C@@H](CC[C@@H]3C[C@@H](O[C@H]4C[C@H](O)[C@H](O[C@H]5C[C@H](O)[C@H](O[C@H]6C[C@H](O)[C@H](O)[C@@H](C)O6)[C@@H](C)O5)[C@@H](C)O4)CC[C@@]32C)[C@@]2(O)CC[C@H](C3=CC(=O)OC3)[C@@]12C` [Compound 7, 12-Dehydrodigoxin--O-methyloxime], in series [1], the distribution volume came out at 1.47 kg⁻¹, the elimination constant came out at 0.0143 h⁻¹ and the excretion in urine is on record as 31 % of dose. Also, the “dosage needed to achieve the same plasma concentration, relative to digoxin” value in series [1] (cats) is 13 % of the dosage of digoxin. Further, in series [1] (in words, cats), the “distribution volume compared with digoxin” value is given as “lower distribution volume”, the “elimination constant compared with digoxin” value is listed as “about equally as great as for digoxin” and the “total clearance compared with digoxin” value was “lower total clearance”. Besides, in “in vivo”, the TD50 was 1.37 mg/kg and the selectivity ratio was 4.1. Also, in series [2], the ED (1.5 mmHg/sec increase) is 0.334 mg/kg; the ED (3.0 mmHg/sec increase) is 0.817 mg/kg; the “quotient” value is given as 3.56. In series [2] (in words), the “dosage activity line compared with digoxin” value is given as “flatter than in the case of digoxin”.

`C[C@H]1O[C@@H](O[C@H]2[C@@H](O)C[C@H](O[C@H]3[C@@H](O)C[C@H](O[C@H]4CC[C@@]5(C)[C@H](CC[C@@H]6[C@@H]5C[C@@H](O)[C@]5(C)[C@@H](C7=CC(=O)OC7)CC[C@]65O)C4)O[C@@H]3C)O[C@@H]2C)C[C@H](O)[C@@H]1O` [digoxin]: the elimination constant entry in series [3] is on record as “about 0.015 h^-1”. In series [1], the distribution volume is 13.3 kg⁻¹, the elimination constant is 0.01214 h⁻¹ and the excretion in urine was 42.8 % of dose. Also, in “in vivo”, the TD50 turned out to be 0.33 mg/kg and the selectivity ratio was 2.75. In addition, in series [2], the ED (1.5 mmHg/sec increase) amounted to 0.12 mg/kg; the ED (3.0 mmHg/sec increase) was 0.253 mg/kg; the “quotient” value was determined as 2.28.
